Source: ChEMBL document CHEMBL4359843, “Linear and Rationally Designed Stapled Peptides Abrogate TLR4 Pathway and Relieve Inflammatory Symptoms in Rheumatoid Arthritis Rat Model” (J Med Chem, 2019)
The source made the active and inactive calls. The calls are words filed in the database; no cut-off is given here. Where a SMILES comes first, the peptide text is derived from it. Bridges are numbered along the chain shown (N, C = ends).

Legend:
[1] = biological target: T1, Toll-like receptor 4 (Homo sapiens, UniProt O00206); experiment: Antagonist activity at TLR4 in human THP1 cells assessed as reduction in LPS-induced ERK phosphorylation at 50 uM after 15 to 30 mins by Western blot analysis; format: cell-based
[2] = test system: Rattus norvegicus; experiment: Antiarthritic activity in Lewis rat model of complete Freund's adjuvant-induced arthritis assessed as increase in cartilage thickness at 1 nmol/g administered intra-articularly into knee joint after 1 week by H and E staining based histopathological analysis; format: functional, organism-based
[3] = biological target: TLR7 and TLR8 (Homo sapiens) (UniProt Q9NYK1+Q9NR97); experiment: Antagonist activity at TLR7/8 in human THP1 cells assessed as reduction in R848-induced IL6 secretion at 50 uM after 24 hrs by ELISA; format: cell-based
[4] = biological target: T2, Toll-like receptor 4 (Mus musculus) (UniProt Q9QUK6); experiment: Antagonist activity at TLR4 in mouse RAW264.7 cells assessed as reduction in LPS-induced IFNalpha secretion at 5 to 50 uM after 24 hrs by ELISA; format: cell-based
T2 sequence (whole entry): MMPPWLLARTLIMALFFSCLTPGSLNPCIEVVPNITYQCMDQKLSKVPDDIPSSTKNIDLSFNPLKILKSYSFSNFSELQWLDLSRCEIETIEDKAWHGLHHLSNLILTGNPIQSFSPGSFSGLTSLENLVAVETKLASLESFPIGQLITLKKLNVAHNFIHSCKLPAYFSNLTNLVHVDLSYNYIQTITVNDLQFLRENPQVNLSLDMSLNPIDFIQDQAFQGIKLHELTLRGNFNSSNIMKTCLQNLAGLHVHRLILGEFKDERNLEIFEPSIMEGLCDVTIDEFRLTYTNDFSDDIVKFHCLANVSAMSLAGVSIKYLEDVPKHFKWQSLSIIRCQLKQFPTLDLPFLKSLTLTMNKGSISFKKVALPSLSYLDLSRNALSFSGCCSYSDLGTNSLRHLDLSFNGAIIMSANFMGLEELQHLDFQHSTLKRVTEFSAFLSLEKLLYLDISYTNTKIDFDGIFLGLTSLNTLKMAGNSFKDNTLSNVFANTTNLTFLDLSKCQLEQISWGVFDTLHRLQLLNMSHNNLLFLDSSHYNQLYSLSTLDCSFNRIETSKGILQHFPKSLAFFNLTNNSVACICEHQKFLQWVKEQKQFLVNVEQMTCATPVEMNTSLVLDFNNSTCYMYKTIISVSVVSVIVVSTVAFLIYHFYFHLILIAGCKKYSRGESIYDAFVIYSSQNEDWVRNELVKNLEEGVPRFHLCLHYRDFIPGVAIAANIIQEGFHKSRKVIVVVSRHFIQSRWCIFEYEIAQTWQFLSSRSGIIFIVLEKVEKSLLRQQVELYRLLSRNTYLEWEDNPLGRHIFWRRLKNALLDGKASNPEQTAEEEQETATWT

[5] = biological target: T1, Toll-like receptor 4; experiment: Antagonist activity at TLR4 in human THP1 cells assessed as reduction in LPS-induced IkappaBalpha degradation at 50 uM after 15 to 30 mins by Western blot analysis; format: cell-based
[6] = test system: Rattus norvegicus; experiment: Antiarthritic activity in Lewis rat model of complete Freund's adjuvant-induced arthritis assessed as regeneration of glycosaminoglycans at the border between bone and cartilage at 1 nmol/g administered intra-articularly into knee joint measured on third week by Safranin-O staining based histopathological analysis; format: functional, organism-based
[7] = test system: Rattus norvegicus; experiment: Antiarthritic activity in Lewis rat model of complete Freund's adjuvant-induced arthritis assessed as appearance of rounded mature chondrocytes surrounded by GAG deposition at 1 nmol/g administered intra-articularly into knee joint and measured on third week by Safranin-O staining based histopathological analysis; format: functional, organism-based
[8] = biological target: T1, Toll-like receptor 4; experiment: Antagonist activity at TLR4 in human PBMC cells assessed as reduction in LPS-induced p38 phosphorylation at 80 uM after 15 to 30 mins by Western blot analysis; format: cell-based
[9] = biological target: T1, Toll-like receptor 4; experiment: Antagonist activity at TLR4 in human PBMC cells assessed as reduction in LPS-induced IL6 secretion at 20 to 80 uM after 24 hrs by ELISA; format: cell-based
[10] = biological target: T2, Toll-like receptor 4 (Mus musculus); experiment: Antagonist activity at TLR4 in mouse RAW264.7 cells assessed as reduction in LPS-induced JNK phosphorylation at 80 uM after 15 to 30 mins by Western blot analysis; format: cell-based
[11] = biological target: T2, Toll-like receptor 4 (Mus musculus); experiment: Antagonist activity at TLR4 in mouse BMDM cells assessed as reduction in LPS-induced extracellular NO secretion by spectrophotometric method; format: cell-based
[12] = biological target: T3, Toll-like receptor 9 (Mus musculus) (UniProt Q9EQU3); experiment: Antagonist activity at TLR9 in mouse RAW264.7 cells assessed as reduction in CpG ODN-induced TNFalpha secretion at 20 to 80 uM after 24 hrs by ELISA; format: cell-based
T3 sequence (whole entry): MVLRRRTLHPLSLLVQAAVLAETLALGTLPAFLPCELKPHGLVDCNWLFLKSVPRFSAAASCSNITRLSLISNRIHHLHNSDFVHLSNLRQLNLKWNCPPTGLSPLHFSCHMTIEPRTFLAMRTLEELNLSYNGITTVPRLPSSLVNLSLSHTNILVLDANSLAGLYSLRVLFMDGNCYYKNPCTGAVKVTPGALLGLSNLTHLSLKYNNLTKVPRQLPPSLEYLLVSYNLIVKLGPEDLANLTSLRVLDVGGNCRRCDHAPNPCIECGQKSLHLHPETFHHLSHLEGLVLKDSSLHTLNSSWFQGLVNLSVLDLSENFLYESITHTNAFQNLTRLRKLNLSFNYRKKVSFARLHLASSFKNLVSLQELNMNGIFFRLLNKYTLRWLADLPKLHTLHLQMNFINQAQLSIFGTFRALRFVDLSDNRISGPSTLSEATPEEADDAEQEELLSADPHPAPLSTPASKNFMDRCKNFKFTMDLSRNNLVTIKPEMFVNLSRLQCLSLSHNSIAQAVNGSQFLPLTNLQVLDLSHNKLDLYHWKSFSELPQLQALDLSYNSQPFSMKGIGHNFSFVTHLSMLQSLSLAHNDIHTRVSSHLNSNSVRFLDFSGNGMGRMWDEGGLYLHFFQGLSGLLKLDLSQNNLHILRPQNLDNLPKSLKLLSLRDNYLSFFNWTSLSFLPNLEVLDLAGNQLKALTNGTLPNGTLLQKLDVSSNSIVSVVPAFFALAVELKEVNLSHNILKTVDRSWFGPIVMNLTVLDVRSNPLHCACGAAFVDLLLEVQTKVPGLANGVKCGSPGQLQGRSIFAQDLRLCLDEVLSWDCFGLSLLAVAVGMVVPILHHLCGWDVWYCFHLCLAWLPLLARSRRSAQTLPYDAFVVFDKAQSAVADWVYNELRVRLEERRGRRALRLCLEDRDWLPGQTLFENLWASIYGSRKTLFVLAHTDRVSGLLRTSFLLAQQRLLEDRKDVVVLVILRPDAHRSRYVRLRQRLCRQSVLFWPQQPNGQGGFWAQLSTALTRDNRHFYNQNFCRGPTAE

[13] = biological target: T2, Toll-like receptor 4 (Mus musculus); experiment: Antagonist activity at TLR4 in mouse RAW264.7 cells assessed as reduction in LPS-induced iNOS expression at 80 uM by Western blot analysis; format: cell-based
[14] = biological target: T2, Toll-like receptor 4 (Mus musculus); experiment: Antagonist activity at TLR4 in mouse BMDM cells assessed as reduction in LPS-induced IFNbeta secretion at 20 to 80 uM after 24 hrs by ELISA; format: cell-based
[15] = biological target: T2, Toll-like receptor 4 (Mus musculus); experiment: Antagonist activity at TLR4 in mouse BMDM cells assessed as reduction in LPS-induced TNFalpha secretion at 20 to 80 uM after 24 hrs by ELISA; format: cell-based

T1 sequence (O00206 whole entry): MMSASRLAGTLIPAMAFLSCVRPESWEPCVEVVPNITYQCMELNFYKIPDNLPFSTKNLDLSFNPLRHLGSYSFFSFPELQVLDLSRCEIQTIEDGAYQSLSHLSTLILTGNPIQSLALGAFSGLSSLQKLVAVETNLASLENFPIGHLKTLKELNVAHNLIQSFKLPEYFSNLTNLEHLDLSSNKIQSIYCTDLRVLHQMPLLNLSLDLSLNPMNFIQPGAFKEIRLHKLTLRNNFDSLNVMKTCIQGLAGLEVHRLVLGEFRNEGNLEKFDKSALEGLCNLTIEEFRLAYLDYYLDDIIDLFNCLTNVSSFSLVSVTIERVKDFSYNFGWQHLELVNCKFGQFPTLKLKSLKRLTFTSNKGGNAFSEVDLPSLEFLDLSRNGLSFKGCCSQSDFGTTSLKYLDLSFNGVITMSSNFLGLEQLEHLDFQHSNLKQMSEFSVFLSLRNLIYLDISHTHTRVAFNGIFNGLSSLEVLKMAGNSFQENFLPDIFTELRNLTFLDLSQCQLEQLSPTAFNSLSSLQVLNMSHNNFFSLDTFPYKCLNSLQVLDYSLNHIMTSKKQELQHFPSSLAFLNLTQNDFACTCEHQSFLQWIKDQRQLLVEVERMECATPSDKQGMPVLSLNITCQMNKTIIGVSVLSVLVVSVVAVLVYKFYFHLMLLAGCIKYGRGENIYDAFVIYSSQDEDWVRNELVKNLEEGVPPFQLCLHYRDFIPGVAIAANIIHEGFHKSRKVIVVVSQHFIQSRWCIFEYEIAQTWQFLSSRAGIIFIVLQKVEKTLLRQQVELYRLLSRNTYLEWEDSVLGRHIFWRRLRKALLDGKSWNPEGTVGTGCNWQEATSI

Compound | Activity [1] | Activity [2] | Activity [3] | Activity [4] | Activity [5] | Activity [6] | Activity [7] | Activity [8] | Activity [9] | Activity [10] | Activity [11] | Activity [12] | Activity [13] | Activity [14] | Activity [15]
CC[C@H](C)[C@@H]1NC(=O)[C@H](Cc2c[nH]c3ccccc23)NC(=O)[C@H](Cc2c[nH]c3ccccc23)NC(=O)[C@@H](NC(=O)[C@H](CO)NC(=O)[C@H](Cc2ccccc2)NC(=O)[C@@H](NC(=O)CNC(=O)[C@@H](N)CC(C)C)C(C)C)CC(=O)NCCCC[C@@H](C(=O)N[C@@H](CC(C)C)C(=O)N[C@H](C(=O)O)C(C)C)NC1=O (H-LGVFSDWWIKLV-OH; lactam 6-10) | Active | Active | Active | Active | Active | Active | Active | – | – | – | – | – | – | – | –
H-LGVFSSWWIKLV-OH | – | – | – | – | – | – | – | Active | Active | Active | Dose-dependent effect | inactive | Active | Active | Active
